Test results reported in patent publication US8343976B2, “Compounds, compositions and methods comprising pyrazole derivatives” (Institute for OneWorld Health, priority 2009, dated 2013).

The compounds below were run against T1, CFTR (Homo sapiens, UniProt P13569) (assay: T84 assay (FLIPR membrane potential dye, forskolin/IBMX-stimulated CFTR channel activity)). Details: Human colonic T84 cells; 10 μM forskolin + 100 μM IBMX; average of at least 2 runs unless marked n = 1.
T1 construct: results in the phosphorylation and opening of CFTR anion channels; host or cells: Human colonic T84 cells
T1 sequence (P13569 whole entry): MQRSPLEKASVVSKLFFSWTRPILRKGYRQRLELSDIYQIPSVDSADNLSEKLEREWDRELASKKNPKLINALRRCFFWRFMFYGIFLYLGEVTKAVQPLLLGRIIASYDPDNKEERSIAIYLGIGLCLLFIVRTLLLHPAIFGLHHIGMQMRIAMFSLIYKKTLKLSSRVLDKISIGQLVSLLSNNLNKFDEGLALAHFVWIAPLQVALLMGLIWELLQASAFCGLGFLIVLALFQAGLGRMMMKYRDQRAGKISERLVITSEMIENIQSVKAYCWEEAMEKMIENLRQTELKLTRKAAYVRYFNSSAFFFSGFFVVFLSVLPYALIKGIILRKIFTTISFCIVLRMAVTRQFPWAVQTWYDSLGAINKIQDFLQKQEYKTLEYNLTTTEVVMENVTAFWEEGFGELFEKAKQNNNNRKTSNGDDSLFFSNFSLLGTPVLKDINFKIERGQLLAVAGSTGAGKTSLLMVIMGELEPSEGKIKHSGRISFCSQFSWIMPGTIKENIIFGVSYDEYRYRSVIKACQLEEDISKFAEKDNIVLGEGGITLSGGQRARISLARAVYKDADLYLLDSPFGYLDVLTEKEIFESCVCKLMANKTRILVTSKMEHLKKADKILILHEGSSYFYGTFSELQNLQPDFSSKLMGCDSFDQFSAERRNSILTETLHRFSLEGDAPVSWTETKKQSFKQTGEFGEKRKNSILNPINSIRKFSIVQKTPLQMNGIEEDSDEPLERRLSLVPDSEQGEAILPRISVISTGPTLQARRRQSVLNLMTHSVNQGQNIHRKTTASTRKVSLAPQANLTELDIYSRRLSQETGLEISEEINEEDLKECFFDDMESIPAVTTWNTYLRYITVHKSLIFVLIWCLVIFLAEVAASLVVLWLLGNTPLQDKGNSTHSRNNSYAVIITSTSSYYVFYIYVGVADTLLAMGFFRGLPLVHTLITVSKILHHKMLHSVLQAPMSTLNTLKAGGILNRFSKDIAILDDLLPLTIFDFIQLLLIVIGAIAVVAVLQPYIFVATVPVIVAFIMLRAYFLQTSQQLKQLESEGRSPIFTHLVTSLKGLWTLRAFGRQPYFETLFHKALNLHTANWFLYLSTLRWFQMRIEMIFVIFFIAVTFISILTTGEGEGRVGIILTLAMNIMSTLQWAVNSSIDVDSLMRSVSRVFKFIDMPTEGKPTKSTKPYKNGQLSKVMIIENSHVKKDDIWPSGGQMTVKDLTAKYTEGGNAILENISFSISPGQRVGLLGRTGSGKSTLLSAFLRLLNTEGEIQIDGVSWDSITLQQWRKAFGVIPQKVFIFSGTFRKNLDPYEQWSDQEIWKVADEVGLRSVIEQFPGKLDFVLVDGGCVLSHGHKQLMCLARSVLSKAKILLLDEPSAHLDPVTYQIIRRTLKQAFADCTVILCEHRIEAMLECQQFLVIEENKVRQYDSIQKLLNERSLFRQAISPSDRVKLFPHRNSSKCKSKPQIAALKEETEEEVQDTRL
Format: cell-based
Description: (§1) For example, Human colonic T84 cells can be acquired from the European Collection of Cell Cultures (ECACC) and grown in standard culture conditions as described by the supplier. On the day before assay 25,000 T84 cells per well are plated into standard black walled, clear bottom 384-well assay plates in standard growth medium consisting of DMEM:F12 with 10% FBS and incubated overnight. On the day of the assay the plates are washed using a standard assay buffer (HBSS with 10 mM Hepes) and incubated for 15 minutes in serum free cell culture medium before the addition of a commercially available membrane potential sensitive fluorescent dye (FLIPR Red membrane potential dye, Molecular Devices Corporation). T84 cells are incubated with the FLIPR Red membrane potential dye for 45 minutes in the presence and absence of test compound before being transferred to a commercially available fluorescence imaging plate reader (FLIPR384, Molecular Devices Corporation). Fluorescence levels are monitored continuously every second for 150 seconds; after an initial 10 second baseline, CFTR channel activity is stimulated through the addition of 10 μM forskolin in the presence of 100 μM of the phosphodiesterase inhibitor iso-butylmethylxanthine (IBMX). Addition of the forskolin leads to the activation of intracellular adenylyl cylase 1, elevating cAMP levels and results in the phosphorylation and opening of CFTR anion channels. CFTR channel opening causes chloride ion efflux and subsequent depolarization of the cells, which is measured by an increase in fluorescence. CFTR inhibitor compounds prevent cell depolarization and the associated increase in fluorescence.
as §1, with “Human colonic” for “For example, Human colonic”, “T84 cells are acquired from” for “T84 cells can be acquired from”, “(ECACC) and are grown in” for “(ECACC) and grown in”

IC50 [µM]	SMILES
9.06	CN(Cc1cccc(C(F)(F)F)c1)C(=O)c1cc(-c2cc(Cl)c(O)c(Cl)c2)n[nH]1 [Compound 1, 3-(3,5-dichloro-4-hydroxyphenyl)-N-methyl-N-(3-(trifluoromethyl)benzyl)-1H-pyrazole-5-carboxamide]
18.7	O=C(NCc1cccc(OC(F)(F)F)c1)c1cc(-c2cc(Cl)c(O)c(Cl)c2)n[nH]1 [Compound 2, 3-(3,5-dichloro-4-hydroxyphenyl)-N-(3-(trifluoromethoxy)benzyl)-1H-pyrazole-5-carboxamide]
3.46	O=C(NCCC(c1ccccc1)c1ccccc1)c1cc(-c2cc(Cl)c(O)c(Cl)c2)n[nH]1 [Compound 3, 3-(3,5-dichloro-4-hydroxyphenyl)-N-(3,3-diphenylpropyl)-1H-pyrazole-5-carboxamide]
21.1	CN(Cc1ccc(Oc2ccccc2)cc1)C(=O)c1cc(-c2cc(Cl)c(O)c(Cl)c2)n[nH]1 [Compound 4, 3-(3,5-dichloro-4-hydroxyphenyl)-N-methyl-N-(4-phenoxybenzyl)-1H-pyrazole-5-carboxamide]
29.5	O=C(NCc1ccc(Cl)c(Cl)c1)c1cc(-c2cc(Cl)c(O)c(Cl)c2)n[nH]1 [Compound 5, 3-(3,5-dichloro-4-hydroxyphenyl)-N-(3,4-dichlorobenzyl)-1H-pyrazole-5-carboxamide]
17.4	CC(C)(C)c1ccc(CNC(=O)c2cc(-c3cc(Cl)c(O)c(Cl)c3)n[nH]2)cc1 [Compound 6, N-(4-tert-butylbenzyl)-3-(3,5-dichloro-4-hydroxyphenyl)-1H-pyrazole-5-carboxamide]
21	CN(Cc1ccc(Oc2ccccn2)cc1)C(=O)c1cc(-c2cc(Cl)c(O)c(Cl)c2)n[nH]1 [Compound 7, 3-(3,5-dichloro-4-hydroxyphenyl)-N-methyl-N-(4-(pyridin-2-yloxy)benzyl)-1H-pyrazole-5-carboxamide]
16.5	CN(Cc1ccc(C(C)(C)C)cc1)C(=O)c1cc(-c2cc(Cl)c(O)c(Cl)c2)n[nH]1 [Compound 8, N-(4-tert-butylbenzyl)-3-(3,5-dichloro-4-hydroxyphenyl)-N-methyl-1H-pyrazole-5-carboxamide]
29.8	O=C(NCc1ccc(F)c(C(F)(F)F)c1)c1cc(-c2cc(Cl)c(O)c(Cl)c2)n[nH]1 [Compound 9, 3-(3,5-dichloro-4-hydroxyphenyl)-N-(4-fluoro-3-(trifluoromethyl)benzyl)-1H-pyrazole-5-carboxamide]
29.6	O=C(c1cc(-c2cc(Cl)c(O)c(Cl)c2)n[nH]1)N1CCN(c2cccc(C(F)(F)F)c2)CC1 [Compound 10, (3-(3,5-dichloro-4-hydroxyphenyl)-1H-pyrazol-5-yl)(4-(3-(trifluoromethyl)phenyl)piperazin-1-yl)methanone]
